Data: ChEMBL document CHEMBL4630901 (2021)
pKi: −log10 of the molar value. Blank lines part the entries; values can stand above or below the compound they belong to.

Tests used:
[1] = molecular target: Prostaglandin F2-alpha receptor (Homo sapiens, UniProt P43088); test: Bayer inhouse assay (human)
[2] = molecular target: Sigma intracellular receptor 2 (Homo sapiens, UniProt Q5BJF2); test: GPCRScan assay: inhibition of Sigma 2; parameters: radioligand conc. used [nm] 5.0, parental cells HEKT
[3] = molecular target: 5-hydroxytryptamine receptor 1D (Homo sapiens) (UniProt P28221); settings: Compound concentration 10.0 uM
[4] = molecular target: 5-hydroxytryptamine receptor 1E (Homo sapiens) (UniProt P28566); settings: Compound concentration 10.0 uM
[5] = molecular target: D(3) dopamine receptor (Homo sapiens) (UniProt P35462); settings: Compound concentration 10.0 uM
[6] = molecular target: Sodium-dependent serotonin transporter (Homo sapiens) (UniProt P31645); settings: Compound concentration 10.0 uM
[7] = molecular target: Prostaglandin E2 receptor EP2 subtype (Homo sapiens) (UniProt P43116); test: Prostanoid EP2 Eurofins-Panlabs radioligand binding assay; parameters: ligand concentration 4 nM
[8] = molecular target: Sodium-dependent noradrenaline transporter (Homo sapiens) (UniProt P23975); settings: Compound concentration 10.0 uM
[9] = molecular target: 5-hydroxytryptamine receptor 2B (Homo sapiens) (UniProt P41595); settings: Compound concentration 10.0 uM
[10] = molecular target: T1, Alpha-2A adrenergic receptor (Homo sapiens) (UniProt P08913); settings: Compound concentration 10.0 uM
T1 sequence (whole entry): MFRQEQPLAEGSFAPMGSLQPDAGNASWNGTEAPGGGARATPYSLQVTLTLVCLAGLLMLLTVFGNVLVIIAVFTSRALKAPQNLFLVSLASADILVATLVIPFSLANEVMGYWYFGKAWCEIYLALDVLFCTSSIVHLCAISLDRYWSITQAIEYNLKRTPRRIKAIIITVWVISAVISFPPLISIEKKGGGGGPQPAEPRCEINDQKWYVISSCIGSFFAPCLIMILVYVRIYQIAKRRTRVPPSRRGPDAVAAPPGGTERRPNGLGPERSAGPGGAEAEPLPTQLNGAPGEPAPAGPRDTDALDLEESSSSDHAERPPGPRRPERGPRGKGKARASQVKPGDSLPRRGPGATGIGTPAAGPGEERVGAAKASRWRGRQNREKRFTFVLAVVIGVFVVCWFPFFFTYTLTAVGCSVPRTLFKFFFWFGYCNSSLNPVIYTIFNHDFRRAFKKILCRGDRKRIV

Homo sapiens = species on record: Homo sapiens; test: Inhibition of Nicotinic Acetylcholine at compound concentration of 10.0 uM in the Eurofins-Panlabs radioligand binding assay (Eurofins_assay_258590); type: protein-complex assay; settings: Compound concentration 10.0 uM
[11] = molecular target: T2, Muscarinic acetylcholine receptor M2 (Homo sapiens) (UniProt P08172); settings: Compound concentration 10.0 uM
T2 sequence (whole entry): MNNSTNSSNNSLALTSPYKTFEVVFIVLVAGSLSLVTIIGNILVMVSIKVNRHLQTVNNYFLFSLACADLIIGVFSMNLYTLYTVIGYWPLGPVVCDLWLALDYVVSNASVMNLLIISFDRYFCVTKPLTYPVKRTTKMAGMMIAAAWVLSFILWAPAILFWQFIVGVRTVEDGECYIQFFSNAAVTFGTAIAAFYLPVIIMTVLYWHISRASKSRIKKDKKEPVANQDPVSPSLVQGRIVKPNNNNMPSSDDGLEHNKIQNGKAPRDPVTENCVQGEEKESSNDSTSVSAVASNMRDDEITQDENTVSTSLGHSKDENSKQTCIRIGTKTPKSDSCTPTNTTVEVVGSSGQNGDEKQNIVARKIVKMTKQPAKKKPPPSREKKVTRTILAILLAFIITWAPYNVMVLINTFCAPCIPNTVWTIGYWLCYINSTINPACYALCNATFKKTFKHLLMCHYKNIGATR

[12] = molecular target: Glutamate NMDA receptor (Rattus norvegicus) (UniProt P35439+Q00959+Q00960+Q00961+Q62645+Q8VHN2+Q9R1M7); settings: Compound concentration 10.0 uM
[13] = molecular target: Beta-3 adrenergic receptor (Homo sapiens) (UniProt P13945); settings: Compound concentration 10.0 uM
[14] = molecular target: Kappa-type opioid receptor (Homo sapiens) (UniProt P41145); settings: Compound concentration 10.0 uM
[15] = molecular target: Beta-1 adrenergic receptor (Homo sapiens) (UniProt P08588); settings: Compound concentration 10.0 uM
[16] = molecular target: Androgen receptor (Homo sapiens) (UniProt P10275); settings: Compound concentration 10.0 uM
[17] = molecular target: D(2) dopamine receptor (Homo sapiens) (UniProt P14416); settings: Compound concentration 10.0 uM
[18] = molecular target: Glucocorticoid receptor (Homo sapiens) (UniProt P04150); settings: Compound concentration 10.0 uM
[19] = molecular target: D(3) dopamine receptor (Homo sapiens) (UniProt P35462); settings: Compound concentration 10.0 uM; remark: listed apart in the source
[20] = molecular target: GABA-A receptor; anion channel (Rattus norvegicus) (UniProt O09028+P15431+P18506+P18508+P19969+P20236+P23574+P23576+P28471+P28473+P30191+P62813+P63079+P63138+Q91ZM7+Q9ES14); settings: Compound concentration 10.0 uM
[21] = molecular target: T3, Muscarinic acetylcholine receptor M1 (Homo sapiens) (UniProt P11229); settings: Compound concentration 10.0 uM
T3 sequence (whole entry): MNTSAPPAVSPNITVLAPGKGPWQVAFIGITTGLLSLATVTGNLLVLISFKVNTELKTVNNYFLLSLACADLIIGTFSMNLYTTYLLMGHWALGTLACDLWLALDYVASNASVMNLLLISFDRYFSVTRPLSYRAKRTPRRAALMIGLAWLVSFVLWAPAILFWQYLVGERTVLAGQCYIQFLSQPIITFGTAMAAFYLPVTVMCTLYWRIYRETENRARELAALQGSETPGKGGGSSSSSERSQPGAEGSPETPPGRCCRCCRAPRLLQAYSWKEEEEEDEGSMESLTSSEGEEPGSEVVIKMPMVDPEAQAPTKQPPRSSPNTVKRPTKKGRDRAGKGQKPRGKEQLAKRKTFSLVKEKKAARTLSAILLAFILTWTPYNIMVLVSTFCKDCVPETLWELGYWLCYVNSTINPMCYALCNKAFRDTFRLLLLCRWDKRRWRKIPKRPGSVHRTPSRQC

[22] = molecular target: Progesterone receptor (Homo sapiens) (UniProt P06401); settings: Compound concentration 10.0 uM
[23] = molecular target: Purinergic P2Y (Rattus norvegicus) (UniProt O35811+Q9EPX4+P49651+Q63371+P41232+O35881+Q6GUG4); settings: Compound concentration 10.0 uM

Chain of Prostaglandin E2 receptor EP2 subtype (Homo sapiens) (P43116 whole entry): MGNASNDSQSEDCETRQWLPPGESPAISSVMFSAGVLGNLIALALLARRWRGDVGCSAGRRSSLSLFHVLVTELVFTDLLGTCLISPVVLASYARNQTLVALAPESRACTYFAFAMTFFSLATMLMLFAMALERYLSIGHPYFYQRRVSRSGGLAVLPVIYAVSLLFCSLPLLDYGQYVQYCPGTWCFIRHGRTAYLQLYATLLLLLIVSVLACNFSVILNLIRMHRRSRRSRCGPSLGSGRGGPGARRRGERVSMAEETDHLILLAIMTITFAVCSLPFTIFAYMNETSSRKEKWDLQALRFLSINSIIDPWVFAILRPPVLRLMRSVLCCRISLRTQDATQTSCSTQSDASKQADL
Chain of D(3) dopamine receptor (Homo sapiens) (P35462 whole entry): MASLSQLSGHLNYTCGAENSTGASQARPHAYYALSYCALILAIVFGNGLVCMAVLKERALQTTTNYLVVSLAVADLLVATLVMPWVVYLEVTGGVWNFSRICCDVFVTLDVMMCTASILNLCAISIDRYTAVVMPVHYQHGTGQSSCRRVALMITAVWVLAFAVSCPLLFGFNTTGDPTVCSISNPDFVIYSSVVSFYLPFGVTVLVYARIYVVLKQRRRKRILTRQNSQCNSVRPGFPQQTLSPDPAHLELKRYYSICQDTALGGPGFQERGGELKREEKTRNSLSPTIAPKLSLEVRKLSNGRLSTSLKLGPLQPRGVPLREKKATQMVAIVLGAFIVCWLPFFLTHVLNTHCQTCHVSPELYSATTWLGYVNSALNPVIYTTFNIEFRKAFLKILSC
Chain of 5-hydroxytryptamine receptor 1D (Homo sapiens) (P28221 whole entry): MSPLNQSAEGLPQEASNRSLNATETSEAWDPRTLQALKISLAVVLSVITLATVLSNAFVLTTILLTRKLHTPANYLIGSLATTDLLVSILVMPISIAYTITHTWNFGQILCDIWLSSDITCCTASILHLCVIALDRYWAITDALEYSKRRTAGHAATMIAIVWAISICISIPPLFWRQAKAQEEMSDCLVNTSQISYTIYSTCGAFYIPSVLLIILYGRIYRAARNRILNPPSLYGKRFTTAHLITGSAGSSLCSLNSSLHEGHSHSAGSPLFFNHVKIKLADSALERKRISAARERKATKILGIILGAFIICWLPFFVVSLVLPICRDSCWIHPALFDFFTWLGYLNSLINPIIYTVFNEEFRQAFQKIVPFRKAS
Chain of Kappa-type opioid receptor (Homo sapiens) (P41145 whole entry): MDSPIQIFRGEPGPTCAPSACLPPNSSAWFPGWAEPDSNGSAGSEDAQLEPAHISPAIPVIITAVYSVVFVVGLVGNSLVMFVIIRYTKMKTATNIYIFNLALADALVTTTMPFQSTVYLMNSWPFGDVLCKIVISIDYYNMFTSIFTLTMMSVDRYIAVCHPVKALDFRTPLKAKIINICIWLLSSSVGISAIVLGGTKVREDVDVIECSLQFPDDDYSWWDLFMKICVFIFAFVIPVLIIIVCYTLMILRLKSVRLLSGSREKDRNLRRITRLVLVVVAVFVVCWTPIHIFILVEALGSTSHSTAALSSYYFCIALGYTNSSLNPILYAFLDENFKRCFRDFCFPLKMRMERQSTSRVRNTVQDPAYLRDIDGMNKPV
Chain of Androgen receptor (Homo sapiens) (P10275 whole entry): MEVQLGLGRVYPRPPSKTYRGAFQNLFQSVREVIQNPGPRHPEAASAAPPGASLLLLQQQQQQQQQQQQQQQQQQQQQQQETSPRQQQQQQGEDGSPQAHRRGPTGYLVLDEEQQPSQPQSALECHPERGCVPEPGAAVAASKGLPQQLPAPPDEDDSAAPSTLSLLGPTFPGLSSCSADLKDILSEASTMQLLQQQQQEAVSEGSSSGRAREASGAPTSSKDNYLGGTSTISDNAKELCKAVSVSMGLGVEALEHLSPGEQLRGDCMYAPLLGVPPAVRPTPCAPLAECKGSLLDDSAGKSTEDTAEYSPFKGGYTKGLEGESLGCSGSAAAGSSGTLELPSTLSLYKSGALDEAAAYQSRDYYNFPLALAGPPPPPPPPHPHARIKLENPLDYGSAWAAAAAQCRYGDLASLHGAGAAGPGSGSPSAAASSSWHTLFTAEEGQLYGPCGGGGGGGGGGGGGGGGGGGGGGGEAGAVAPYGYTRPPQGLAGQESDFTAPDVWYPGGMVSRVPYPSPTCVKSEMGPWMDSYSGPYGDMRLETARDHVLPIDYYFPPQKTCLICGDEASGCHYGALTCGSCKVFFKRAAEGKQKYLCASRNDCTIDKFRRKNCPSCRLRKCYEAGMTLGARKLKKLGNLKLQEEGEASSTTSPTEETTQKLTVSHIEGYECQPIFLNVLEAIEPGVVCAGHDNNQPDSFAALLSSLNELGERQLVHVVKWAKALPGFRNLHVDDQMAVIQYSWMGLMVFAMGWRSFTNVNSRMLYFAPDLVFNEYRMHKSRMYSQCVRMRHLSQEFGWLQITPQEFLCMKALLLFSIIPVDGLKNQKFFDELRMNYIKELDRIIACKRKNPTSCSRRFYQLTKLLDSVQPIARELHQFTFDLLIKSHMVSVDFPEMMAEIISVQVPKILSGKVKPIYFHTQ
Chain of 5-hydroxytryptamine receptor 2B (Homo sapiens) (P41595 whole entry): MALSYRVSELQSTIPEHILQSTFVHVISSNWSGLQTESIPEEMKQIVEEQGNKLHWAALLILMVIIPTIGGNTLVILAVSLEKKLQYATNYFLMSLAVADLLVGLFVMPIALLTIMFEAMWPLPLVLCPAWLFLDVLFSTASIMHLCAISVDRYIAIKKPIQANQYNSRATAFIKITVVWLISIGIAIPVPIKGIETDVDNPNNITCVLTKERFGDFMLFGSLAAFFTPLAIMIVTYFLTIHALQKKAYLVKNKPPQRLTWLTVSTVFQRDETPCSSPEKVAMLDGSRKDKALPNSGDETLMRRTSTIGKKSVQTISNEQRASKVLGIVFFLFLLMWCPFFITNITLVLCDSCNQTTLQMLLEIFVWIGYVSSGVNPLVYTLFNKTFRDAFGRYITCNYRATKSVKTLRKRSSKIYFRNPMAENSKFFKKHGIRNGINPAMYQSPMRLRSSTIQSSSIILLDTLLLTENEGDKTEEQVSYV
Chain of Progesterone receptor (Homo sapiens) (P06401 whole entry): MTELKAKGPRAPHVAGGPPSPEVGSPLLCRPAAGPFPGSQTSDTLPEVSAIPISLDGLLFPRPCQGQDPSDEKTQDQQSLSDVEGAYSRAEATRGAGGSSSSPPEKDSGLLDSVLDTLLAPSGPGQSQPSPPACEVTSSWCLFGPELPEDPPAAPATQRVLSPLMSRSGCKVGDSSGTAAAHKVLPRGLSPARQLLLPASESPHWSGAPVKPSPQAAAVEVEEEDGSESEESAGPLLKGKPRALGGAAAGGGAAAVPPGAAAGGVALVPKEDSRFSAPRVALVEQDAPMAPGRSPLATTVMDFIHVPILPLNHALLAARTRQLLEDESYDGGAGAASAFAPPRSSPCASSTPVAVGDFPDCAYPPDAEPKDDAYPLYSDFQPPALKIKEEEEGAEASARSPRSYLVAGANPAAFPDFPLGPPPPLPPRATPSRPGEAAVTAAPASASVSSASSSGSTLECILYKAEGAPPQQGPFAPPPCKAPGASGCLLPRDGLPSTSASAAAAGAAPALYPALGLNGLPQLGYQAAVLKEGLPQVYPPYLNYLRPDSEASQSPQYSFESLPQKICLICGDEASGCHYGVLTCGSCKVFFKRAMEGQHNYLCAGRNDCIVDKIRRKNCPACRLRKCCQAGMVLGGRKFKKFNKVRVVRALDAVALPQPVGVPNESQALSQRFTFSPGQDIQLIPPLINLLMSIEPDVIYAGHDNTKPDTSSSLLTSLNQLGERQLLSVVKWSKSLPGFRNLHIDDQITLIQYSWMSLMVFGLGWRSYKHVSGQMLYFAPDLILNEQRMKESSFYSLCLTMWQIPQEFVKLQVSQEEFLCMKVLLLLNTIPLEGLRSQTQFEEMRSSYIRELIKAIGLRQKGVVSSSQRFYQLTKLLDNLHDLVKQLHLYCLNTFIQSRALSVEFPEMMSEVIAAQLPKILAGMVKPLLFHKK
Chain of Prostaglandin F2-alpha receptor (P43088 whole entry): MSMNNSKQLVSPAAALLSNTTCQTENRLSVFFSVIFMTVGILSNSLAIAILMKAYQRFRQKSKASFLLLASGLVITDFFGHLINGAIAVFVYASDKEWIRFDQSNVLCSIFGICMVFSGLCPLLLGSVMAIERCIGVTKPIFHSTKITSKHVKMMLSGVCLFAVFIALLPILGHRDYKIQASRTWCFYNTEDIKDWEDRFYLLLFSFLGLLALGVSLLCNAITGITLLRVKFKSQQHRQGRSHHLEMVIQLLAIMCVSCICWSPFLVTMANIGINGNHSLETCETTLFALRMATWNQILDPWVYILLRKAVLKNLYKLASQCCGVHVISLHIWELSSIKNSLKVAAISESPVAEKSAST
Chain of Sigma intracellular receptor 2 (Q5BJF2 whole entry): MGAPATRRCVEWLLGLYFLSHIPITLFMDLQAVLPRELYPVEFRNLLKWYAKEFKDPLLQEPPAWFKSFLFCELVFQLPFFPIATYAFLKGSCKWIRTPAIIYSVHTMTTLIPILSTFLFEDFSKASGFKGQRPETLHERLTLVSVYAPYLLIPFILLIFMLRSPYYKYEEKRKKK
Chain of 5-hydroxytryptamine receptor 1E (Homo sapiens) (P28566 whole entry): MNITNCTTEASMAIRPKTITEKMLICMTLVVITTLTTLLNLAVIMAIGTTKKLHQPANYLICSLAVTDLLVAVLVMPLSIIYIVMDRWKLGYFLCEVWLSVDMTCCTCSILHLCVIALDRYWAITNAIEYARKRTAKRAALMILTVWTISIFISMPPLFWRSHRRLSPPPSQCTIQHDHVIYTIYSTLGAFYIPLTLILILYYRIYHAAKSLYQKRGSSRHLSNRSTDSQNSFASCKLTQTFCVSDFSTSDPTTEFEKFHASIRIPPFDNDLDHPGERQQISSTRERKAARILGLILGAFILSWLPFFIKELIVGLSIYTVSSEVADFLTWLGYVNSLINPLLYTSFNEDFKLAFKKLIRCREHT

IC50 [1]: 1.2 µM (not active)
pKi [2]: 5.96
inhibition [3]: 9.12%
inhibition [4]: 18.3%
inhibition [5]: 3.81%
SMILES: Cc1c(N2CCNCC2)nc2ccc(Br)cc2c1C(=O)NC[C@H](CCC(=O)O)c1ccccc1Cl [BAY-403]

SMILES: Cc1c(N2CCCC2)nc2ccc(Br)cc2c1C(=O)NC[C@H](CCC(=O)O)c1ccccc1Cl [BAY-6672]
inhibition [6]: -4%
inhibition ([7]; Compound concentration 0.001 uM): 4%
inhibition ([7]; Compound concentration 0.01 uM): -2%
inhibition ([7]; Compound concentration 0.1 uM): 3%
inhibition ([7]; Compound concentration 1.0 uM): 15%
inhibition ([7]; Compound concentration 10.0 uM): 4%
inhibition [8]: 32%
inhibition [9]: 12%
inhibition [10]: 13%
inhibition (Homo sapiens): 3%
inhibition [11]: 3%
inhibition [12]: 7%
inhibition [13]: 21.6%
inhibition [14]: 15%
inhibition [15]: 3%
inhibition [16]: 3%
inhibition [17]: 3%
inhibition [18]: 11%
inhibition [19]: 10%
inhibition [20]: 6%
inhibition [21]: 9%
inhibition [22]: 14%
inhibition [23]: 5%
